The test system of series [1] is RhoB promoter. Briefly: RhoB promoter transcriptional activity (luciferase reporter) in NIH3T3 cells. Type of series: cell-based. The text has this:
Gene Constructs and RhoB Promoter Transcriptional Activity Assay. Constitutively active H-Ras61L, K-RasV12, N-RasV12, and dominant negative […]-Ras were kind gifts from Dr. Channing Der (University of North Carolina) (Khosravi-Far, R. et al., Mol Cell Biol, 1995, 15:6443-53; Quilliam, L. A. et al., Mol Cell Biol, 1994, 14:1113-21). Wild-type RhoA and RhoB were subcloned into hemaglutinin (HA)-tagged pcDNA3 (INVITROGEN). The orientation and the sequences of these genes were confirmed by DNA sequencing facilities at the H. Lee Moffitt Cancer Center, Tampa, Fla. RhoB promoter construct pGEI was kindly provided by Dr Y. Monden (Banyu Tsukuba Research, Japan) (Nakamura et al., 1996). pCMV-β-galactosidase vector was purchased from INVITROGEN. The plasmid containing CA-, DN-PI3K, Mek and Akt were kindly provided by Dr. Julie Y. Djeu (H. Lee Moffitt Cancer and Research Institute, Tampa, Fla.) (Jiang, K. et al., Blood, 2003, 101:236-44). β-galactosidase activity and luciferase assay kits were purchased from PROMEGA Corporation, Madison, Wis. The serum response element (SRE) reporter was provided by Dr. Richard Jove, H. Lee Moffitt Cancer and Research Institute, Tampa, Fla. (Turkson, J. et al., Mol Cell Biol, 1999, 19:7519-28). […] Richard Jove, Oncology program, H. Lee Moffitt Cancer and Research Institute, Tampa, Fla. (Turkson, J. et al., Mol Cell Biol, 1999, 19:7519-28). […] (Luetteke, N. C. et al., Genes Dev, 1994, 8:399-413). DNA transfection was performed with the standard lipofectamine protocol (INVITROGEN). […] After transfection the cells were grown for another 36-48 h. Cells were then washed twice with PBS and lyzed in Promega Passive Lysis Buffer. Aliquots of the lysates were then used to measure the luciferase and β-galactosidase activities. The luciferase values were first divided by β-galactosidase values. The RhoB promoter transcriptional activity was determined by dividing the luciferase/β-Gal values from oncogene-transfected cells by those from pcDNA3-transfected cells. […] All the samples were performed in triplicate and the averages of 3 independent experiments were reported here.
On the technique in general: A reporter such as luciferase makes a cellular process visible.

Series [2] has as its system RhoB promoter. The experiment in a line: RhoB promoter transcriptional activity (luciferase reporter) in human cancer cell lines A-549, Panc-1, C33A. Type of series: cell-based. To be noted: PANC-1 and A-549 cells expressing mutated K-Ras. An excerpt:
Gene Constructs and RhoB Promoter Transcriptional Activity Assay. Constitutively active H-Ras61L, K-RasV12, N-RasV12, and dominant negative […]-Ras were kind gifts from Dr. Channing Der (University of North Carolina) (Khosravi-Far, R. et al., Mol Cell Biol, 1995, 15:6443-53; Quilliam, L. A. et al., Mol Cell Biol, 1994, 14:1113-21). Wild-type RhoA and RhoB were subcloned into hemaglutinin (HA)-tagged pcDNA3 (INVITROGEN). The orientation and the sequences of these genes were confirmed by DNA sequencing facilities at the H. Lee Moffitt Cancer Center, Tampa, Fla. RhoB promoter construct pGEI was kindly provided by Dr Y. Monden (Banyu Tsukuba Research, Japan) (Nakamura et al., 1996). pCMV-β-galactosidase vector was purchased from INVITROGEN. The plasmid containing CA-, DN-PI3K, Mek and Akt were kindly provided by Dr. Julie Y. Djeu (H. Lee Moffitt Cancer and Research Institute, Tampa, Fla.) (Jiang, K. et al., Blood, 2003, 101:236-44). β-galactosidase activity and luciferase assay kits were purchased from PROMEGA Corporation, Madison, Wis. The serum response element (SRE) reporter was provided by Dr. Richard Jove, H. Lee Moffitt Cancer and Research Institute, Tampa, Fla. […] Richard Jove, Oncology program, H. Lee Moffitt Cancer and Research Institute, Tampa, Fla. […] Human EGFR, ErbB2 cDNA construct were kindly provided by Dr. Noreen Luetteke, H. Lee Moffitt Cancer and Research Institute, Tampa, Fla. (Luetteke, N. C. et al., Genes Dev, 1994, 8:399-413). DNA transfection was performed with the standard lipofectamine protocol (INVITROGEN). Briefly, cells were plated in 60-mm plates, pGEI plasmid was used at 2 μg per plate, whereas all the other plasmids were used at 0.1-1.0 μg per plate. After transfection the cells were grown for another 36-48 h. Cells were then washed twice with PBS and lyzed in Promega Passive Lysis Buffer. Aliquots of the lysates were then used to measure the luciferase and β-galactosidase activities. The luciferase values were first divided by β-galactosidase values. The RhoB promoter transcriptional activity was determined by dividing the luciferase/β-Gal values from oncogene-transfected cells by those from pcDNA3-transfected cells. […] All the samples were performed in triplicate and the averages of 3 independent experiments were reported here. Proteins that induce malignant transformation and those that suppress tumorigenesis most likely antagonize each other's functions. […] Du, W. et al., Mol Cell Biol, 1999, 19:1831-40; Du, W. and Prendergast, G. C., Cancer Res, 1999, 59:5492-6). An objective of the experiments described herein was to determine whether oncogenes that are prevalent in human cancers suppress RhoB expression, and whether RhoB antagonizes the ability of these oncogenes to induce malignant transformation. To this end, the effects of several oncogenes on RhoB promoter transcriptional activity were first evaluated. NIH3T3 cells and human cancer cell lines derived from lung (A-549), pancreatic (Panc-1) and cervical (C33A) tumors were transiently transfected with pcDNA3 empty vectors or pcDNA3 constructs containing various oncogenes along with full length RhoB promoter firefly luciferase reporter and SRE-renilla luciferase reporter as well as a β-gal reporter for controlling transfection efficiency as described in the Materials and Methods section.

SMILES strings stand for the structures.

Consider `O=c1[nH]cc(F)c(=O)[nH]1` [5-FU, 5-fluorouracil], for which the “induction of RhoB promoter activity” value is 2 fold with RhoB promoter [1] (NIH3T3, 5-FU 2.0 μM 12 hours (FIG. 6A)); “more than 4 fold” with RhoB promoter [1] (NIH3T3, 5-FU 2 μM for 12 hours, absence of oncogenes (FIG. 2A)); “only one fold or less than one fold” in the series on RhoB promoter [1] (NIH3T3, 5-FU 2 μM for 12 hours, in the presence of H-Ras, N-Ras, and K-Ras (FIG. 2A)). Moreover, the “5-FU induction of RhoB promoter activity” value in the series on RhoB promoter [2] was “both cell lines are resistant to 5-FU”.

Source of the values: patent publication US7629310B2, “RhoB as a suppressor of cancer cell growth, cell transformation, and metastasis” (University of South Florida, priority 2000, dated 2009).
